This passage reports RP-LC retention time results from the METLIN SMRT retention time set (Domingo-Almenara et al. 2019).

Structures are written as SMILES.

The nature of the data set: gradient 5% acetonitrile 3 min, to 50% in 2 min, to 85% in 15 min, held 3 min, 100 µL/min. The following applies: column: Zorbax Extend-C18 2.1 x 50 mm; eluents: water / acetonitrile, 0.1% formic acid. A digest of the protocol:
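Data were gathered over 3 months by HPLC coupled to a quadrupole time-of-flight mass spectrometer, operated in positive and negative ionization mode. Mixtures of ~100 pure standards ran on a Zorbax Extend-C18 column (2.1 × 50 mm, 1.8 μm) at 100 μL/min, with water and acetonitrile each containing 0.1% formic acid and dead and dwell volumes of 40 μL and 900 μL. Retention time was read from adduct peaks picked by computer and checked manually.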
With `COc1ccc(Cl)cc1C(=O)N1CCC(c2nc3ccncc3n2C(C)C)C1` (centres undefined), the RP-LC retention time came out at 543 s.

Compound `COCCCNC(=O)N1CCC(C)(c2noc(C3CCOCC3)n2)CC1` displayed an RP-LC retention time of 654 s.

On to `O=C(Nc1ccc(-n2cnc(C(=O)N3CCCCCC3)c2)nc1)C1CC1`, for which the RP-LC retention time was 698 s.

As to `O=C(Nc1ccc2cn[nH]c2c1)C1c2ccccc2Oc2ccccc21`, the RP-LC retention time amounted to 795 s.

`O=C(c1nc(Nc2ccc(F)cc2)c2ccccc2n1)N1CCCCCC1` yielded an RP-LC retention time of 845 s.

`CC(C)CN1CCN(C(=O)c2cn3cc(Cl)ccc3n2)CC1`: the RP-LC retention time was determined as 577 s.

Regarding `Cc1cccc(NC(=O)CSc2nnc(NC(=O)CN(C)S(C)(=O)=O)s2)c1C`, the RP-LC retention time is 618 s.

`CC(C)NC(=O)c1cccn(-c2ccc(NC(=O)C(C)(C)C)cc2)c1=O` came in with an RP-LC retention time of 749 s.

Turning to `CNC(=O)N1CCC(OC(C)=O)CC1`, the RP-LC retention time turned out to be 583 s.

Compound `Cc1ccccc1-c1noc(N2CCC(C(=O)N3CCN(C4CCCCC4)CC3)CC2)n1` registered an RP-LC retention time of 705 s.

With `COc1ccc(C(=O)NC2CCN(C(=O)c3cc(-c4ccc(OC)cc4)n[nH]3)CC2)cc1`, the RP-LC retention time is 729 s.

`CCCc1nc(C(C)(C)O)c(C(=O)OCc2oc(=O)oc2C)n1Cc1ccc(-c2ccccc2-c2nn[nH]n2)cc1` registered an RP-LC retention time of 832 s.

Turning to `Cc1cccn2c(Nc3ccc4c(c3)OCCO4)c(-c3cccc(Cl)c3)nc12`, the RP-LC retention time turned out to be 727 s.

`Clc1ccc(-c2noc(Cc3nc(-c4ccc5c(c4)OCO5)cs3)n2)cc1` came in with an RP-LC retention time of 1260 s.

With `Clc1ccccc1-c1nnc(-c2ccccc2Cl)o1`, the RP-LC retention time is 1080 s.

On to `CCc1cc(C(=O)Nc2ccc(C)cc2F)nc2ccnn12`, for which the RP-LC retention time was 1140 s.

As for `CCOc1ccc(-c2[nH]ncc2CNS(=O)(=O)c2cccc(C(F)(F)F)c2)cc1`, the RP-LC retention time is 902 s.

Consider `CN(CCc1noc(-c2ccc(F)cc2)n1)C(=O)Nc1ccccc1Cl`, for which the RP-LC retention time worked out at 983 s.

`Cc1cc2c(=O)n(CC(=O)Nc3cccc(Cl)c3C)ccc2s1` displayed an RP-LC retention time of 819 s.

For the compound `COc1ccc(OC)c(-c2ccc(=O)n(CCc3nc(-c4ccc(C)cc4)no3)n2)c1`, the RP-LC retention time is 1020 s.

Compound `CN(C)S(=O)(=O)c1ccc2c(c1)N(CC(=O)NCc1ccccn1)C(=O)C1CCCCN21` (centres undefined) registered an RP-LC retention time of 646 s.

For the compound `COc1ccc(CCS(=O)(=O)Nc2ccc(CC(=O)NCc3cccs3)cc2)cc1`, the RP-LC retention time was 782 s.

`CCOC(=O)N1CCN(C(=O)C2CCC(CNS(=O)(=O)CC)CC2)CC1` (centres undefined) gave an RP-LC retention time of 631 s.

`COCCC(=O)Nc1ccc2c(c1)CCC(=O)N2C` showed an RP-LC retention time of 609 s.

`O=C(NC1CC1)c1nc2ccccn2c1-c1ccc(F)cc1`: the RP-LC retention time worked out at 709 s.

In turn, `O=C(CSc1nnc2sc3ccccc3n12)Nc1ccc2c(c1)OCO2` returned an RP-LC retention time of 691 s.

Take `O=C(COc1ccc(Cl)cc1)N1CCC2(C1)C(=O)Nc1ccccc12` (centres undefined): the RP-LC retention time was determined as 776 s.

For the compound `CCCCN(C)S(=O)(=O)c1ccccc1-c1nc(-c2ccc(F)cc2)no1`, the RP-LC retention time turned out to be 1110 s.

Compound `Cc1ccc(C(=O)N2CCN(c3ccc(-c4nc(C)c(C)s4)cn3)CC2)s1` gave an RP-LC retention time of 891 s.

`Fc1ccc(-n2cc(-c3noc(-c4nccc5ccccc45)n3)nn2)cc1` came in with an RP-LC retention time of 1120 s.

`Cc1ccc(N2CCN(C(=O)C(C)(C)C)CC2)nn1` displayed an RP-LC retention time of 531 s.

In turn, `Cc1nc(S(=O)(=O)N2CCC(C(=O)NCc3ccc(Cl)cc3)CC2)cn1C` displayed an RP-LC retention time of 709 s.

For the compound `Cc1[nH]c(C(=O)N2CCCC(C(=O)NC(C)c3ccccc3)C2)c(C)c1C(=O)OC(C)C` (centres undefined), the RP-LC retention time was found to be 896 s.

Take `CC(C(=O)NCc1cccs1)S(=O)(=O)c1ccc2c(c1)S(=O)(=O)N=CN2` (centres undefined): the RP-LC retention time is 628 s.

As to `CCc1cc(=O)n(CC(=O)Nc2cc(F)ccc2F)c(-c2ccccc2)n1`, the RP-LC retention time worked out at 1180 s.

`O=C(Cn1nc2c(Oc3cccc(F)c3)nccn2c1=O)Nc1ccccc1C(F)(F)F` returned an RP-LC retention time of 870 s.

In the case of `CCOC(=O)C1CCN(C(=O)Cn2c(=O)c3nnc(C)n3c3ncccc32)CC1`, the RP-LC retention time worked out at 780 s.

For the compound `CC(C)Sc1ccc(CC(=O)NCC2CCN(C(=O)NC(C)(C)C)CC2)cc1`, the RP-LC retention time came out at 828 s.

For the compound `Nc1c2c(nc3c1CCC3)CCCC2`, the RP-LC retention time was found to be 624 s.

In the case of `CS(=O)(=O)N1CCC(CC(=O)NCCC2=CCCCC2)C1` (centres undefined), the RP-LC retention time came to 743 s.

In the case of `Cc1cc(F)ccc1NC(=O)C1CCN(S(=O)(=O)c2cc(C(=O)N3CCOCC3)cs2)CC1`, the RP-LC retention time stood at 759 s.

The compound `Cc1nc(-c2ccc3c(c2)n(CC(=O)NCCC2=CCCCC2)c(=O)n3C(C)C)no1` came in with an RP-LC retention time of 915 s.

Consider `CCc1noc(NC(C)=O)c1-c1ccc(OC)c(S(=O)(=O)Nc2ccc(C)c(F)c2)c1`, for which the RP-LC retention time amounted to 836 s.

In turn, `COc1ccc(NC(=O)CSc2nccc(N3CCN(c4cc(C)ccc4C)CC3)n2)cc1Cl` registered an RP-LC retention time of 936 s.

With `CCc1ccc(NC(=O)N2CCCC(C)(C(=O)NCc3ccc(C)cc3)C2)cc1` (centres undefined), the RP-LC retention time was 1040 s.

As to `Cc1ccnc(N2CCC(C(=O)NCc3ccc(CN4CCCCCC4)o3)CC2)n1`, the RP-LC retention time turned out to be 567 s.

`Cc1nc(-c2cn(C(C)C)c3ncccc23)sc1C(=O)NCc1cccs1` came in with an RP-LC retention time of 970 s.

For `CCC1CCCCN1CCCNC(=O)CCc1cc2cc(C)ccc2[nH]c1=O` (centres undefined), the RP-LC retention time was found to be 600 s.

For the compound `CCc1noc(-c2ccnc(-n3cnc(C(=O)NC4CCCCCC4)c3)c2)n1`, the RP-LC retention time is 640 s.

With `COc1cccc(CN2CCn3c(nnc3[C@@H]3C[C@@H](O)CN3C)C2)c1OC`, the RP-LC retention time amounted to 549 s.

`COc1ccc(C(=O)N2CCCC2c2cc(C)on2)cc1OC` (centres undefined) gave an RP-LC retention time of 655 s.

Consider `COc1cc([C@@H]2c3cc4c(cc3[C@H](O)[C@@H](CO)[C@@H]2C(=O)N2CCOCC2)OCO4)cc(OC)c1OC`, for which the RP-LC retention time was determined as 632 s.

Take `CSc1nnc(-c2nn(C)c3c2CN(C(=O)c2ccc(Br)cc2)CC3)n1C`: the RP-LC retention time is 753 s.

`COc1ccc(C(C)NC(=O)Cc2cn(C)c3ncccc23)cc1OC` (centres undefined) came in with an RP-LC retention time of 640 s.

As to `COCCNCc1ccc(-c2ccc(Br)cc2)o1`, the RP-LC retention time came out at 674 s.

With `COc1ccc(OC)c(-c2csc(-c3nnn(-c4cccc(Cl)c4)c3N)n2)c1`, the RP-LC retention time was 1180 s.

`COc1ccc(N2CCN(c3cc(SCC(=O)NCc4ccco4)ncn3)CC2)cc1` registered an RP-LC retention time of 748 s.

Compound `COc1ccc(C(=O)N2CCn3c(C)nnc3C2)cc1F` registered an RP-LC retention time of 593 s.

Turning to `O=C(Nc1cccnc1)C1CCCN(S(=O)(=O)c2cc(-c3noc(C4CCCC4)n3)cs2)C1` (centres undefined), the RP-LC retention time stood at 825 s.

Compound `O=c1ccc(-c2ccccc2)nn1CCc1nc(-c2ccccc2Br)no1` gave an RP-LC retention time of 965 s.

`Cc1ccc(NC(=O)Cn2cccc2-c2nnc(C3CCC3)o2)cc1F` registered an RP-LC retention time of 973 s.

Compound `Cc1ccc(-c2noc(Cn3ncn4nc(-c5cc(C)ccc5C)cc4c3=O)n2)cc1` yielded an RP-LC retention time of 878 s.

Consider `O=C1CCCc2cc(S(=O)(=O)N3CCC(C(=O)NCCc4ccc(Cl)cc4)CC3)ccc2N1`, for which the RP-LC retention time was 776 s.

The compound `COc1ccc(NS(=O)(=O)c2[nH]ncc2C(=O)NCc2ccc(SC)cc2)cc1` displayed an RP-LC retention time of 807 s.

`CCNC(=O)c1ncn2c1C(=O)N(C1CC1)C(C)(C(=O)NCc1ccccc1)C2` (centres undefined) returned an RP-LC retention time of 656 s.

The compound `CC(C)NC(=O)c1ccc2c(c1)nc(CN(C)C(=O)NCc1ccco1)n2C` displayed an RP-LC retention time of 602 s.

Turning to `Cc1c(C(=O)N2CCOCC2)cnn1-c1cc(-c2nc(C(C)C)no2)ccn1`, the RP-LC retention time is 840 s.

The compound `Cc1oc(-c2[nH]ncc2C(=O)N2CCCCC2)cc1S(=O)(=O)Nc1ccc(Cl)cc1` had an RP-LC retention time of 799 s.

Consider `COc1cc2c(cc1OC)C1C(C(=O)NCCCN3CCN(C)CC3)c3ccccc3C(=O)N1CC2` (centres undefined), for which the RP-LC retention time worked out at 547 s.

In turn, `Cc1cc(C)c(NC(=O)C2CCCN(S(=O)(=O)c3cc(-c4noc(C)n4)cs3)C2)c(C)c1` (centres undefined) gave an RP-LC retention time of 1110 s.

Take `CCc1ccccc1N1C=C(C(=O)OC)S(=O)(=O)c2ccccc21`: the RP-LC retention time was 918 s.

`Cc1cccc(-c2noc(Cn3ncn4nc(-c5ccc(Br)cc5)cc4c3=O)n2)c1` had an RP-LC retention time of 1260 s.

In turn, `Cc1ccc2c(c1)N(S(C)(=O)=O)CCC(C(=O)Nc1cccc(Br)c1)O2` (centres undefined) had an RP-LC retention time of 1060 s.

In the case of `CCCNC(=O)c1cc(C)nc2ccc(Br)cc12`, the RP-LC retention time was found to be 718 s.

Take `Cc1ccc(F)cc1S(=O)(=O)N1CCN(c2cnn3c(C)nnc3c2)CC1`: the RP-LC retention time came to 616 s.

For `Cc1noc(-c2cccc(OC3CN(C(=O)c4cnn(C)c4)C3)c2)n1`, the RP-LC retention time was found to be 700 s.

Compound `COc1ccc(C(=O)Nc2nc(-c3ccc4c(c3)NC(=O)CO4)c(C)s2)cc1` returned an RP-LC retention time of 881 s.

Turning to `COCC(=O)N1CCc2c([nH]c3ccccc23)C1c1ccccc1` (centres undefined), the RP-LC retention time worked out at 935 s.

`CCOC(=O)C1CCCN(CC(O)COc2ccccc2C(C)=O)C1` (centres undefined) registered an RP-LC retention time of 556 s.
